Article PMC4625925, “One amino acid makes the difference: the formation of ent-kaurene and 16α-hydroxy-ent-kaurane by diterpene synthases in poplar” (BMC Plant Biology, 2015)

How the values were obtained:
PtTPS17 = target: T1, PtTPS17 (Populus trichocarpa, UniProt A0A0S1TFB5); assay: GC-MS product analysis; format: biochemical; settings: 50 µM GGPP, 5 mM MgCl2, pH 7.5, 25 °C, 2 h; product ent-CPP detected as copalol
T1 construct: N-terminally truncated (delta 65 aa, transit peptide removed), pET200 (N-terminal His tag), E. coli BL21(DE3), partially purified
T1 sequence (A0A0S1TFB5 66-795): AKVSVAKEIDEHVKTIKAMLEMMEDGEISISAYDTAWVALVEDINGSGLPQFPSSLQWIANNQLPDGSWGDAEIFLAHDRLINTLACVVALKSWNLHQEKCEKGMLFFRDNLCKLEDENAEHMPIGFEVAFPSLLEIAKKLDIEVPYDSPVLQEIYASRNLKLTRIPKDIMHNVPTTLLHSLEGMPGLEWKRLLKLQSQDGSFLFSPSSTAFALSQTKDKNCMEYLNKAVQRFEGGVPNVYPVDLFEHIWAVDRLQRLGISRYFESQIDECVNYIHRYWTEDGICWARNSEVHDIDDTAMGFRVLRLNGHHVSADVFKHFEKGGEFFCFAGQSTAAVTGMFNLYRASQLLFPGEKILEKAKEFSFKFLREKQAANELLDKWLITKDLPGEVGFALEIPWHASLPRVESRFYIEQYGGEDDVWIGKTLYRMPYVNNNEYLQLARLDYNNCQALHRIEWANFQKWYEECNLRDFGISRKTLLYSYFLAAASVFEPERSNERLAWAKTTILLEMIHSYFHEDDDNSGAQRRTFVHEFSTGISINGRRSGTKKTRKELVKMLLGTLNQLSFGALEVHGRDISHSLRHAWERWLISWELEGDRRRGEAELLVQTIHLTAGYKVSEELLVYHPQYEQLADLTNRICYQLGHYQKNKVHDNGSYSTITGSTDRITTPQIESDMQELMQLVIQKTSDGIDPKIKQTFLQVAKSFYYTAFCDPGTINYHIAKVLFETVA

PtTPS19 = target: T2, PtTPS19 (Populus trichocarpa, UniProt A0A0S1TJ32); assay: GC-MS product analysis, ent-CPP made in situ; format: biochemical; settings: ent-CPP from GGPP by coupled PtTPS17; 5 mM MgCl2, pH 7.5, 25 °C, 2 h
T2 construct: N-terminally truncated (delta 42 aa, transit peptide removed), pET200 (N-terminal His tag), E. coli BL21(DE3), partially purified
T2 sequence (A0A0S1TJ32 entry or part of it): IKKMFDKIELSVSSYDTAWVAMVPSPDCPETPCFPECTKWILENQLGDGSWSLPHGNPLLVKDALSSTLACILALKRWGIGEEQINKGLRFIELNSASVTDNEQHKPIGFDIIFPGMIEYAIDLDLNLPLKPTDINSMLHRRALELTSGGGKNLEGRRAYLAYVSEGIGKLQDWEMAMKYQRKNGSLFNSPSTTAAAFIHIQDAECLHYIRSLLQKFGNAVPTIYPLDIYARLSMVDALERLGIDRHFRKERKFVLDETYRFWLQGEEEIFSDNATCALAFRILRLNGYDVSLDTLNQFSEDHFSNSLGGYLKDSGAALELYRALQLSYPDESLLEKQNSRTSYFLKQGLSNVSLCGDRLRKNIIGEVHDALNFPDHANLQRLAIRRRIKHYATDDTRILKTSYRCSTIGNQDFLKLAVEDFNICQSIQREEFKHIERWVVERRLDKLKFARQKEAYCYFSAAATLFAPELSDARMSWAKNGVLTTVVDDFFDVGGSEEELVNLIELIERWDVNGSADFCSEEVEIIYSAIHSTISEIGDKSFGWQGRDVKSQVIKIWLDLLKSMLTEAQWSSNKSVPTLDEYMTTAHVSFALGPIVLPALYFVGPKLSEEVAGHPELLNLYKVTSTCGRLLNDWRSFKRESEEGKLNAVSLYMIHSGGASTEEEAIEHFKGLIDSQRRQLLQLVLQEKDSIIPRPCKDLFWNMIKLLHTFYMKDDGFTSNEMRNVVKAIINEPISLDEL

CC(C)=CCC/C(C)=C/CC/C(C)=C/CC/C(C)=C/COP(=O)(O)OP(=O)(O)O [(E,E,E)-GGPP]
GC-MS product analysis (PtTPS17): When PtTPS17 was incubated with GGPP, copalol was detected

C=C1CC[C@@H]2C(C)(C)CCC[C@@]2(C)[C@@H]1CC/C(C)=C/COP(=O)(O)OP(=O)(O)O [ent-CPP]
GC-MS product analysis, ent-CPP made in situ (PtTPS19): PtTPS19 converted ent-CPP into ent-kaurene
